Test results: ChEMBL document CHEMBL5325407, “Structure-based development of potent Plasmodium falciparum M1 and M17 aminopeptidase selective and dual inhibitors via S1'-region optimisation” (Eur J Med Chem, 2023)
Converted amounts (≈) assume the structure as drawn. The source made the active and inactive calls. The rule behind the calls is not given here.

Columns and labels:
[1] = (§1) Inhibition of C-terminal 6-His tagged Plasmodium falciparum M1 aminopeptidase (195 to 1085 residues) expressed in Escherichia coli BL21(DE3) cells using H-Leu-NHMec as substrate assessed as apparent inhibition constant preincubated for 10 mins followed by substrate addition by spectrofluorimetric analysis; details: read-out: Ki(app)
[2] = as §1, with “M17” for “M1”, “(85” for “(195”, “605” for “1085”, “BL21 (DE3)” for “BL21(DE3)”; details: read-out: Ki(app)
Plasmodium falciparum = assay: Antiplasmodial activity against drug-sensitive Plasmodium falciparum 3D7 infected in Red blood cell assessed as growth inhibition measured after 72 hrs by LDH assay; assay type: functional, organism-based; details: 3D7, Erythrocyte
[3] = target: Histone deacetylase 1 (Homo sapiens) (UniProt Q13547); assay: Inhibition of HDAC1 (unknown origin)
Histone deacetylase 1 (Homo sapiens), sequence (Q13547 whole entry): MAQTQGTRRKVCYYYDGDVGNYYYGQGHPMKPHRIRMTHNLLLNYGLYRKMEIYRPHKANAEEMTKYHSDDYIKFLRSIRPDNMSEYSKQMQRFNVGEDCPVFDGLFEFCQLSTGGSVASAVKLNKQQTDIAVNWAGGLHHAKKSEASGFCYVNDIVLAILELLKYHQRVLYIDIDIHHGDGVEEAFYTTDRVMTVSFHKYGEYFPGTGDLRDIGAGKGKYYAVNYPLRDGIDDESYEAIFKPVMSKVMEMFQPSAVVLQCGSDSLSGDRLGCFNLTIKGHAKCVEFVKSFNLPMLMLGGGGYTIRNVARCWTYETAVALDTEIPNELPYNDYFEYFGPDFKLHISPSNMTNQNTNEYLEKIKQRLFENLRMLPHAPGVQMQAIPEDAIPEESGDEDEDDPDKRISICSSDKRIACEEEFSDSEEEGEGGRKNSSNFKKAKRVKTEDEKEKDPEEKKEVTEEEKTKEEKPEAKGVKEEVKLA

[4] = target: Histone deacetylase 2 (Homo sapiens) (UniProt Q92769); assay: Inhibition of HDAC2 (unknown origin)
[5] = target: Histone deacetylase 5 (Homo sapiens) (UniProt Q9UQL6); assay: Inhibition of HDAC5 (unknown origin)
[6] = target: T1, Histone deacetylase 7 (Homo sapiens) (UniProt Q8WUI4); assay: Inhibition of HDAC7 (unknown origin)
T1 sequence (whole entry): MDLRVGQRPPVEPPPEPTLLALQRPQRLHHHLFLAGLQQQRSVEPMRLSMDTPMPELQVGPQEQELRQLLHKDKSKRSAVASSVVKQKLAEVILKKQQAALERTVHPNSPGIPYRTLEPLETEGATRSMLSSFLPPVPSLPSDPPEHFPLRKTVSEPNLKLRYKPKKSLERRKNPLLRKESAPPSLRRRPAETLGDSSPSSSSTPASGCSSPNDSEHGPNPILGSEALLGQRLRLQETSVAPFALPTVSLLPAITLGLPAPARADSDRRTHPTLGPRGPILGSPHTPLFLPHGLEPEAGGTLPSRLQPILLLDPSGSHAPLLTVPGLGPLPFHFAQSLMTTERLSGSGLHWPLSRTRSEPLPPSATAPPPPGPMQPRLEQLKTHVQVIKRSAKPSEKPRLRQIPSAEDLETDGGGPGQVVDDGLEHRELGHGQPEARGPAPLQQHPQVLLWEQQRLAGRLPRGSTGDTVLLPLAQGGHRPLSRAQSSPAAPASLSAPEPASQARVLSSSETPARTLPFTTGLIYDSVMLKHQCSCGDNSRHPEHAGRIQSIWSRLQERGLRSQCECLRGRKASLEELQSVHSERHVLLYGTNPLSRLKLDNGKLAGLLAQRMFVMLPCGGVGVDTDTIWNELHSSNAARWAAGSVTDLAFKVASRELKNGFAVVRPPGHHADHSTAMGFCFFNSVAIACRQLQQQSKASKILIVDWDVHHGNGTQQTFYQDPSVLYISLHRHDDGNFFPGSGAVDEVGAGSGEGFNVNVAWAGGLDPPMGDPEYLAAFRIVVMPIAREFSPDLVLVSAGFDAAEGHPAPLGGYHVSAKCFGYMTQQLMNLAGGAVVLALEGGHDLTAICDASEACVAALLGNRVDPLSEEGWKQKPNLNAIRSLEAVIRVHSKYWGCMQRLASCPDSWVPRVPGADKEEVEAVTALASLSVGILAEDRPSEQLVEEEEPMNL

[7] = target: T2, Histone deacetylase 8 (Homo sapiens) (UniProt Q9BY41); assay: Inhibition of HDAC8 (unknown origin)
T2 sequence (whole entry): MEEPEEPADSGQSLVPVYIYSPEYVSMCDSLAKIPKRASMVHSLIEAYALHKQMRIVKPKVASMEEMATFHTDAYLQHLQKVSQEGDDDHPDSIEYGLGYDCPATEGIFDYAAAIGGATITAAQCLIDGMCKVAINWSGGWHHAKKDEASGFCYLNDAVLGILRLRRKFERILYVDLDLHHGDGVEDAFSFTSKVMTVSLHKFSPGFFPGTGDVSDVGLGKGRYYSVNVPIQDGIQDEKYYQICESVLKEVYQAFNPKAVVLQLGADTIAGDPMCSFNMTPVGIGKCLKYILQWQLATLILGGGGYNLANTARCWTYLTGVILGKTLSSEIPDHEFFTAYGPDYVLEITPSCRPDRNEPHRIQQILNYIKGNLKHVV

[8] = target: Histone deacetylase 9 (Homo sapiens) (UniProt Q9UKV0); assay: Inhibition of HDAC9 (unknown origin)
Histone deacetylase 9 (Homo sapiens), sequence (Q9UKV0 whole entry): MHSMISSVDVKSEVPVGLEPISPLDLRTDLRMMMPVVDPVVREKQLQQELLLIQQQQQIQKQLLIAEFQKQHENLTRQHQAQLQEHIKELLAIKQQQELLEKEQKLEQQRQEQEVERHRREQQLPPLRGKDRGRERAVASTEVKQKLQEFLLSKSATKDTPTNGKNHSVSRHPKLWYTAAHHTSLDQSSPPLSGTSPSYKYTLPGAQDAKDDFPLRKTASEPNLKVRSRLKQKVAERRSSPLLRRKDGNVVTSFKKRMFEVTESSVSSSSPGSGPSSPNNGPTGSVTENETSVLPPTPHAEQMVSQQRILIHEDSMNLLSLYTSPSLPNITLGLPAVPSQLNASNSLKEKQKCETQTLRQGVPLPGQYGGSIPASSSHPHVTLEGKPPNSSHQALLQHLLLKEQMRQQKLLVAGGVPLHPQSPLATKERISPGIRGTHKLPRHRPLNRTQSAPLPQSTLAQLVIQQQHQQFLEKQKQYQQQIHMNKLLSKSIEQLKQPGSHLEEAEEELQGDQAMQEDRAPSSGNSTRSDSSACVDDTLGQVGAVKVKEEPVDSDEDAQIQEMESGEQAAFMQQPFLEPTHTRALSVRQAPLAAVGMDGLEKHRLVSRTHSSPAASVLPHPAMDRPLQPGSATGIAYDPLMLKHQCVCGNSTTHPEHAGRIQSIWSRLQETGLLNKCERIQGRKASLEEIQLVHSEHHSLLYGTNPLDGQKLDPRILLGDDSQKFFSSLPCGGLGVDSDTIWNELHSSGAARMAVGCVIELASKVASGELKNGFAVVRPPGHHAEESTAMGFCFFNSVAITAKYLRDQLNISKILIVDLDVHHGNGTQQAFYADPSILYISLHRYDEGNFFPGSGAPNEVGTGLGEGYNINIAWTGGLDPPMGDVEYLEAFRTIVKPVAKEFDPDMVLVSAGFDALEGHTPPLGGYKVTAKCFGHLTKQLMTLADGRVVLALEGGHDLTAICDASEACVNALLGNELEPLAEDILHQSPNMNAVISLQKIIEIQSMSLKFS

[9] = target: T3, Polyamine deacetylase HDAC10 (Homo sapiens) (UniProt Q969S8); assay: Inhibition of HDAC10 (unknown origin)
T3 sequence (whole entry): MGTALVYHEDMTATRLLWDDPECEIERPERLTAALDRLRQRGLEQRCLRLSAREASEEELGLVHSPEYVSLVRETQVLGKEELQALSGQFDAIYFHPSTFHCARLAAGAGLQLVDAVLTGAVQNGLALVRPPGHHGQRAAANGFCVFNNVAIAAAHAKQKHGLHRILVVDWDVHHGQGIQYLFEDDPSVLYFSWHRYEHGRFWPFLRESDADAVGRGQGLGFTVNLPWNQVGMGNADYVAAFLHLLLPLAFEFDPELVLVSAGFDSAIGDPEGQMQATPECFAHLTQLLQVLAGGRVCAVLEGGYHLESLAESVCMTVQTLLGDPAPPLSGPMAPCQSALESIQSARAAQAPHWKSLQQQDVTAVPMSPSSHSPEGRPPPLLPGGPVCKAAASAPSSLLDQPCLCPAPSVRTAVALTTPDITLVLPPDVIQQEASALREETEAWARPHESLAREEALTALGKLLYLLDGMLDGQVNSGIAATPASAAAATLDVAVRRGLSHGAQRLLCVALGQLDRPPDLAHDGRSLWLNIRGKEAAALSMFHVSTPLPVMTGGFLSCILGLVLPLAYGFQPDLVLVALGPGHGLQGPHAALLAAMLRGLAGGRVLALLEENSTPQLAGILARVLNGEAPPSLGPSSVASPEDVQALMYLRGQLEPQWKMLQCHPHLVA

[10] = target: Endoplasmic reticulum aminopeptidase 1 (Homo sapiens) (UniProt Q9NZ08); assay: Inhibition of ERAP1 (unknown origin)
Endoplasmic reticulum aminopeptidase 1 (Homo sapiens), sequence (Q9NZ08 whole entry): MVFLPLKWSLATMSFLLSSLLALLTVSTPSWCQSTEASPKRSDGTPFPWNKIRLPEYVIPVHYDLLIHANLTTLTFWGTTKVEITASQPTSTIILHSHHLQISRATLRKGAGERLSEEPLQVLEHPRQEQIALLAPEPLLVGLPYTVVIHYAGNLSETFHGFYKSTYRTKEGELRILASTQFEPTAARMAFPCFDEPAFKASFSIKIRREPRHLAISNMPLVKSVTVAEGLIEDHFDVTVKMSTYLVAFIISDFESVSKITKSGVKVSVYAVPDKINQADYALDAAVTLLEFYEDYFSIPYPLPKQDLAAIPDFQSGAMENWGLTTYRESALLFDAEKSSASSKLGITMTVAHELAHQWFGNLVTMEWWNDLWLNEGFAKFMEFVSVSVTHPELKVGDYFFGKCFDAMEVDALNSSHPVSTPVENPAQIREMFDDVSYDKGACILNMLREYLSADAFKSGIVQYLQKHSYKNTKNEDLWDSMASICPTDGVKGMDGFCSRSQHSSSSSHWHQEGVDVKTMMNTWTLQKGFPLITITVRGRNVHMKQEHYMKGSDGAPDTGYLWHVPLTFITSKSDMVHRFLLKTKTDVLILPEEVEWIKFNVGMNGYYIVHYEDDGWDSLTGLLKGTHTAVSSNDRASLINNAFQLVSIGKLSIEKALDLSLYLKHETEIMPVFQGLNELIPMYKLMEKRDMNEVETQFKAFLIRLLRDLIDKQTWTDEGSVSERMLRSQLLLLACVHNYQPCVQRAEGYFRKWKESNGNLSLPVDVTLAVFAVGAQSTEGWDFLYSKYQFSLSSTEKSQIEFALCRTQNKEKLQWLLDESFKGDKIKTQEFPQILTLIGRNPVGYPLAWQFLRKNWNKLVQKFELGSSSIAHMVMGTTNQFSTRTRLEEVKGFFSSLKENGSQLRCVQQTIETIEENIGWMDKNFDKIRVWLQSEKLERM

[11] = target: Endoplasmic reticulum aminopeptidase 2 (Homo sapiens) (UniProt Q6P179); assay: Inhibition of ERAP2 (unknown origin)
[12] = target: Neutrophil collagenase (Homo sapiens) (UniProt P22894); assay: Inhibition of MMP8 (unknown origin) at 10 uM relative to control
Neutrophil collagenase (Homo sapiens), sequence (P22894 101-467 limits assumed): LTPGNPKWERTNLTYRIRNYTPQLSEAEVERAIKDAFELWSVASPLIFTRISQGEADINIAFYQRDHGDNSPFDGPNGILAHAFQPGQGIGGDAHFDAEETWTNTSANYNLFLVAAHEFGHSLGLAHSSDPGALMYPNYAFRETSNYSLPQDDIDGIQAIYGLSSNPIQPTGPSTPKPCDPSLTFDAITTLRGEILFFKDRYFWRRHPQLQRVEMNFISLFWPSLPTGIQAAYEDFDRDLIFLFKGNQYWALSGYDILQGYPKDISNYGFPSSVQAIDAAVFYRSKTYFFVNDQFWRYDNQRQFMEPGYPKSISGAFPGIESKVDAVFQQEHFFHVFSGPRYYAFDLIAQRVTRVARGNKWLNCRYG

[13] = target: Matrix metalloproteinase-9 (Homo sapiens) (UniProt P14780); assay: Inhibition of MMP9 (unknown origin) at 10 uM relative to control
Matrix metalloproteinase-9 (Homo sapiens), sequence (P14780 whole entry): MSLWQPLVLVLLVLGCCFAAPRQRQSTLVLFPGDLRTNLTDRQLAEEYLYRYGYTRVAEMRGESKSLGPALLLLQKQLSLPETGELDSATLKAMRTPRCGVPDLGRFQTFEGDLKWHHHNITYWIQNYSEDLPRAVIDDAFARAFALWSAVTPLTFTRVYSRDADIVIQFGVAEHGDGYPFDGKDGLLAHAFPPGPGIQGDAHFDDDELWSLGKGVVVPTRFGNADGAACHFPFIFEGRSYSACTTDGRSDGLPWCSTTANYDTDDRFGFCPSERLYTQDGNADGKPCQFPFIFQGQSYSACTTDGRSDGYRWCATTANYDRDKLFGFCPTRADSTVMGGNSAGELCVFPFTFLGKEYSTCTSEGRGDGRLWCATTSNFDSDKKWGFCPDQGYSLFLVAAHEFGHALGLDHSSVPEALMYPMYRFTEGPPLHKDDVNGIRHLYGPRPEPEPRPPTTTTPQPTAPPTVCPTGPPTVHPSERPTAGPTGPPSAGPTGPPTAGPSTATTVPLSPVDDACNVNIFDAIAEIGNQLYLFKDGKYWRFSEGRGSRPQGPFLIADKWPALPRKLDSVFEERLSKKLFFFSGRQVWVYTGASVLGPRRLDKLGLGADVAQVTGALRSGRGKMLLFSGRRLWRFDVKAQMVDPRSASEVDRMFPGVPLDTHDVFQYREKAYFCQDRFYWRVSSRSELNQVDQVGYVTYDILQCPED

[14] = target: Collagenase 3 (Homo sapiens) (UniProt P45452); assay: Inhibition of MMP13 (unknown origin) at 10 uM relative to control
[15] = target: Matrix metalloproteinase-15 (Homo sapiens) (UniProt P51511); assay: Inhibition of MMP15 (unknown origin) at 10 uM relative to control
Matrix metalloproteinase-15 (Homo sapiens), sequence (P51511 132-669 limits assumed): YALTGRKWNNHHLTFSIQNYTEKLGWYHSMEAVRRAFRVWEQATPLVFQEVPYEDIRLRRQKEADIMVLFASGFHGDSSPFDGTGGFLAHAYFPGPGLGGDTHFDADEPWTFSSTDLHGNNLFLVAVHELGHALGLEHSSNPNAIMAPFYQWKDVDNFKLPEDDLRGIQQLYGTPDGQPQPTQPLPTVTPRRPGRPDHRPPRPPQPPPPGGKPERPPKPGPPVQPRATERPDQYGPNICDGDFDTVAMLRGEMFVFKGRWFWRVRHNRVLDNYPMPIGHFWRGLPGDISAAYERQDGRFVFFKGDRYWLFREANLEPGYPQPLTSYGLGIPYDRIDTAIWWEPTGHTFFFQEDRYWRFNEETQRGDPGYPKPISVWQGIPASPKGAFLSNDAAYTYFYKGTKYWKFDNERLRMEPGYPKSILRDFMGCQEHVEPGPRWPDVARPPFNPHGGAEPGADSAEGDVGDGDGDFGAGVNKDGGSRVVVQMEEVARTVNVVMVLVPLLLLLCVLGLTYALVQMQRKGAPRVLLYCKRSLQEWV

[16] = target: Matrix metalloproteinase-24 (Homo sapiens) (UniProt Q9Y5R2); assay: Inhibition of MMP24 (unknown origin) at 10 uM relative to control
Matrix metalloproteinase-24 (Homo sapiens), sequence (Q9Y5R2 whole entry): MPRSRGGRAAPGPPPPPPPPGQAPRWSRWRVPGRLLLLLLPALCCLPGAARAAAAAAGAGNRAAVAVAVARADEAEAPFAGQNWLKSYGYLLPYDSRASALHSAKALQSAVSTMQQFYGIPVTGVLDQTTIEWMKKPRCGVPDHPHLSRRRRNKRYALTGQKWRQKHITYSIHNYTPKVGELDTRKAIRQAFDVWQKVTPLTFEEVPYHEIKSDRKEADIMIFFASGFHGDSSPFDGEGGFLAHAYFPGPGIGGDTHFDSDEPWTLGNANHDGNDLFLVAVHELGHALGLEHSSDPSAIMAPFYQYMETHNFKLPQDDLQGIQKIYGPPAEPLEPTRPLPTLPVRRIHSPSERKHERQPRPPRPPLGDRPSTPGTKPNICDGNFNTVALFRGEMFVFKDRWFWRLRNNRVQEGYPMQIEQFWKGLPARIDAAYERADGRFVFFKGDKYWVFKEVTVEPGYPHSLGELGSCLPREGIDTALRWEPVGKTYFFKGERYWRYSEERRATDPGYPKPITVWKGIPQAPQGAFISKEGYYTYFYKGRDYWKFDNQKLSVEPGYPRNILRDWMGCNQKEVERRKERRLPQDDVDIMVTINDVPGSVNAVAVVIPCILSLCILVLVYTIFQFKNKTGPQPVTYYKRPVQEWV

[17] = Kinetic solubility of the compound in 0.01 M HCL at pH 2.0 measured after 30 mins by nephelometric analysis; assay type: physicochemical; details: read-out: Kinetic_solubility
[18] = Kinetic solubility of the compound in phosphate buffer at pH 6.5 measured after 30 mins by nephelometric analysis; assay type: physicochemical; details: read-out: Kinetic_solubility
[19] = Metabolic stability in human liver microsomes assessed as half life measured for 60 mins in presence of NADPH; assay type: ADME, Microsome
[20] = Metabolic stability in mouse liver microsomes assessed as half life measured for 60 mins in presence of NADPH; assay type: ADME, Microsome
[21] = Metabolic stability in human liver microsomes assessed as intrinsic clearance measured per mg protein for 60 mins in presence of NADPH; assay type: ADME, Microsome; details: read-out: CLH
[22] = Metabolic stability in mouse liver microsomes assessed as intrinsic clearance measured per mg protein for 60 mins in presence of NADPH; assay type: ADME, Microsome; details: read-out: CLH
HEK293 = assay: Cytotoxicity against HEK293 cells assessed as inhibition of cell growth at 40 uM; assay type: toxicity, cell-based; details: human, hek293, 40 µM

inhibition [3]: inactive
inhibition [4]: inactive
inhibition [5]: inactive
inhibition [6]: inactive
inhibition [7]: inactive
inhibition [8]: inactive
inhibition [9]: inactive
inhibition [10]: inactive
inhibition [11]: inactive
inhibition [12]: > 50%
inhibition [13]: > 50%
inhibition [14]: > 50%
inhibition [15]: > 50%
inhibition [16]: > 50%
solubility kinetic at 0.5 h [17]: 3.1 µg/mL (≈ 7.22 µM)
solubility kinetic at 0.5 h [18]: 1.6 µg/mL (≈ 3.73 µM)
half-life [19]: 1.77 h
half-life [20]: 1.75 h
microsomal CLint [21]: 16 µL/min/mg
microsomal CLint [22]: 17 µL/min/mg
Compound: O=C(CNc1ccccc1)NC(C(=O)NO)c1ccc(-c2cc(F)c(F)c(F)c2)cc1 (centres undefined)
Ki [1]: 66 nM
Ki [2]: 57 nM
EC50 (Plasmodium falciparum): 170 nM
Activity (HEK293): Non-Toxic
